Data on three compounds can be found in ChEMBL document CHEMBL1201862, “PubChem BioAssay data set” (2004).

A word on the IC50: it is the concentration that inhibits the measured activity by half.

Activity calls are given as the source filed them. Rule as the data show it: actives have a measured IC50 and inactives only a lower limit.

Envelope glycoprotein gp160, sequence (Q6QLK5 whole entry, the tested form may be a part): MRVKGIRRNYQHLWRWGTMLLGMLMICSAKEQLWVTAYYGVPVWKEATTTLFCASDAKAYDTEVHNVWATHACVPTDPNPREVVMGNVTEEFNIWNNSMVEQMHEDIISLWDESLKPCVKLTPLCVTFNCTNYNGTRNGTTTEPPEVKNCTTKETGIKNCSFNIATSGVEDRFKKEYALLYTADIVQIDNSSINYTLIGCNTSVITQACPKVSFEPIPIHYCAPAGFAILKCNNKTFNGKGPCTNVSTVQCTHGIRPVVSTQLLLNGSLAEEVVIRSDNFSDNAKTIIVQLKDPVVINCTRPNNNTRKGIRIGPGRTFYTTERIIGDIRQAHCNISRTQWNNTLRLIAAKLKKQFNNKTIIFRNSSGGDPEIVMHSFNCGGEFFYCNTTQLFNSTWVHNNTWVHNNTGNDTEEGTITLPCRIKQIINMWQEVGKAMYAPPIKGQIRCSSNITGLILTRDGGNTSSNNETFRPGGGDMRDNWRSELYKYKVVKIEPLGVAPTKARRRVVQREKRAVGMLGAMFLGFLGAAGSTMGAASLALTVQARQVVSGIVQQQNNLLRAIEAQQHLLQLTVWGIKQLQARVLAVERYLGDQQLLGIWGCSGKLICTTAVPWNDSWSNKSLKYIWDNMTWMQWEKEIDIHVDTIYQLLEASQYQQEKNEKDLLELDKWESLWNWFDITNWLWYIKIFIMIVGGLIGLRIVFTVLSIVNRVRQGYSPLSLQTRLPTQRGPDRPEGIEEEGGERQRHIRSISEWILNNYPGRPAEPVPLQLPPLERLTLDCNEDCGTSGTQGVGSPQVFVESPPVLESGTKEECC

The experiment has as its target Envelope glycoprotein gp160 (Human immunodeficiency virus 1, UniProt Q6QLK5). The experiment is described as follows: inhibitors of HIV fusion peptide binding, primary screen, biochemical, uHTS, fluorescence dequenching (AID 1986).
As for `Cc1ccc2nc(N3C(=O)C(O)=C(C(=O)c4ccco4)C3c3cccc(O)c3)sc2c1` (stereo not drawn), the half-maximal inhibitory concentration (IC50) was 16.9 µM (active). Consider `CC1(C)CC(=O)C2=C(C1)c1c(ccc3ccccc13)NC2c1cc([N+](=O)[O-])cc([N+](=O)[O-])c1O` (stereo not drawn), for which the half-inhibitory concentration (IC50) is 9.83 µM (active).

`CC(C)COc1ccc(-c2nn(-c3ccccc3)cc2/C=C2/SC(=S)N(CC(=O)O)C2=O)cc1`: the half-inhibitory concentration (IC50) is 8.09 µM (active).
